The values that follow are results of earlier work, collected in patent US20160250192A1, “PRODUCTION METHOD OF PHARMACEUTICAL COMPOSITION CONTAINING CANDESARTAN CILEXETIL” (Sawai Pharmaceutical Co., Ltd., priority 2013, published 2016).

In the case of `CCOc1nc2cccc(C(=O)OC(C)OC(=O)OC3CCCCC3)c2n1Cc1ccc(-c2ccccc2-c2nnn[nH]2)cc1` (racemic) [Candesartan cilexetil, (RS)-1-[(cyclohexyloxy)carbonyloxy]ethyl 2-ethoxy-1-{[2′-(1H-tetrazole-5-yl)-biphenyl-4-yl]methyl}-1H-benzimidazole-7-carboxylate], the solubility in water result is listed as “poorly soluble”.
